Among the data in patent publication US20170298055A1, “sGC STIMULATORS” (IRONWOOD PHARMACEUTICALS, INC., priority 2014, published 2017) are EC50 values, retold here.

This test deals with T1, soluble guanylate cyclase (sGC) (Homo sapiens, UniProt Q02108+Q02153).
T1 construct: endogenously expressing soluble guanylate cyclase (sGC); endogenous in cells; host or cells: HEK293
T1 sequence (Q02153 1-619): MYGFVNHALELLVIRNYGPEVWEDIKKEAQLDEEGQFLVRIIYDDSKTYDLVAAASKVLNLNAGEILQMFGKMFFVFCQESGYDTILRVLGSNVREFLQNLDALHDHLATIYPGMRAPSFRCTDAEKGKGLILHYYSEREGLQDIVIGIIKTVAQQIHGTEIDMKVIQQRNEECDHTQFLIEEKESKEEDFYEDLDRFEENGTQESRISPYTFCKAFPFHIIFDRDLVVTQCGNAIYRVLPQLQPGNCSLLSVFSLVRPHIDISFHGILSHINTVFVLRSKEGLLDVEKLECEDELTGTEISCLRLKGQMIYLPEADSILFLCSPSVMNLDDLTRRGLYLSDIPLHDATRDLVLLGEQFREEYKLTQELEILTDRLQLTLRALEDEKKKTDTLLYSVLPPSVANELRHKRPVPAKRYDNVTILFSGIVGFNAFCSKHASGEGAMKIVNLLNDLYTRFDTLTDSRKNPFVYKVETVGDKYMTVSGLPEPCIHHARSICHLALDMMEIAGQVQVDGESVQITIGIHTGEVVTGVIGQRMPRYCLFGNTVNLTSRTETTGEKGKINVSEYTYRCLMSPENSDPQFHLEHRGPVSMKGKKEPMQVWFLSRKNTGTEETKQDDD
T1 sequence (Q02108 1-690): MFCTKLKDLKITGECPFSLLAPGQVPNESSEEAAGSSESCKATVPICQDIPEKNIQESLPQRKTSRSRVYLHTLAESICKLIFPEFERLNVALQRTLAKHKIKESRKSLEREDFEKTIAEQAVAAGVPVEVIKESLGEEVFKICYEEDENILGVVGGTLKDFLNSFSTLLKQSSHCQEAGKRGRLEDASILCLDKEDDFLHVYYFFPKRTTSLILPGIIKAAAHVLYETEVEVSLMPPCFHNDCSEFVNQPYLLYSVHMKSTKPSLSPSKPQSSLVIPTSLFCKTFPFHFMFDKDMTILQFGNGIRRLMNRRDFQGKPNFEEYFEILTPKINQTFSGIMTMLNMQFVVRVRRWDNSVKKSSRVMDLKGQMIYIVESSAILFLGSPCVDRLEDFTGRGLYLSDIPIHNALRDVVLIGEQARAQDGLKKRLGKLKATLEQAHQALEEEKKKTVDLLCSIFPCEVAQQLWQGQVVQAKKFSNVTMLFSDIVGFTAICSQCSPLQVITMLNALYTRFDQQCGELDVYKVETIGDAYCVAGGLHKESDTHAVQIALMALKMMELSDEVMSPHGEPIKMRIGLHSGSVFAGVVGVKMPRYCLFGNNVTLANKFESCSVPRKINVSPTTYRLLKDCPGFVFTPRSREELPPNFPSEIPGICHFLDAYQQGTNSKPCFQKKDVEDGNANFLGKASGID
In words: sGC-HEK-cGMP assay, LC/MS detection, with SNP incubation (Example 2A). It counts as cell-based. The following applies: HEK293 cells, in the presence of 10 μM SNP; top of concentration-response curve not fitted to 100%; read-out: sGC_HEK_LCMS uEC50 (nM) Binned (unconstrained). The protocol:
Human embryonic kidney cells (HEK293), endogenously expressing soluble guanylate cyclase (sGC), were used to evaluate the activity of test compounds. Compounds stimulating the sGC receptor should cause an increase in the intracellular concentration of cGMP. HEK 293 cells were seeded in Dulbecco's Modification of Eagle's Medium supplemented with fetal bovine serum (10% final) and L-glutamine (2 mM final) in a 200 μL volume at a density of 1×10^5 cells/well in a poly-D-lysine coated 96 well flat bottom plate and grown overnight at 37° C. Medium was aspirated and cells were washed with 1× Hank's Buffered Saline Salt Solution (200 μL). Cells were then incubated for 15 minutes at 37° C. with 0.5 mM 3-isobutyl-1-methylxanthine (200 μL). Test article and sodium nitroprusside were then added to the assay mixture (2 μL each) and incubated at 37° C. for 10 minutes. After the 10 minute incubation, the assay mixture was aspirated and 0.1M HCl (200 μL) was added to the cells. The plate was incubated at 4° C. for 30 minutes in the 0.1M HCl to stop the reaction and lysed the cells. The plates were then centrifuged at 1,200 g for 5 minutes at room temperature. Supernatants were collected and transferred to a new flat bottom 96 well plate for analysis. Vehicle controls were carried out using DMSO (1%). A known sGC stimulator, BAY 41-2272, was used as the positive control. Samples were diluted with an equal volume of 1 M Ammonium Acetate (pH 7) to neutralize samples for better chromatography. A 2× cGMP standard curve was prepared in 0.1 M HCl and then diluted with an equal volume of 1 M Ammonium Acetate, with the following final concentrations in nM: 1024, 512, 256, 128, 64, 32, 16, 8, 4, 2, 1. cGMP concentrations were determined from each sample using the LC/MS conditions (Table 2 below) and calculated standard curve. EC50 values were calculated from concentration-response curves generated with GraphPad Prism Software.

Take `OCCOc1nc(-c2cc(-c3ccon3)n(Cc3ccccc3F)n2)ncc1F` [Compound I-1]: the EC50 fell in the range of 100 to 1000 nM.
For the molecule `CN(C)CCOc1nc(-c2cc(-c3ccon3)n(Cc3ccccc3F)n2)ncc1F` [Compound I-2], the EC50 was in the range of 100 to 1000 nM.
